Measured values reported in patent US4973603A, “Platelet activating factor antagonist and methods of use therefor” (priority 1989, dated 1990).
Like-named read-outs stand apart in the source and are kept apart here.

Key:
[1] = tested on: platelet activating factor (PAF); assay: PAF Induced Mortality; format: in vivo, mouse (Charles River CD-1, female); conditions: for protective effect (in words): compared with Formula I
Procedure: The induction of mortality by the injection of low doses of PAF into mice has been described as a method for assessing the effectiveness of agents to antagonize the anaphylactic properties of PAF by J. M. Young, P. J. Maloney, S. W. Jubb and J. S. Clarke, in Prostaglandins, 30:545-551 (1985). Charles River CD-1 female mice (25-30 g) were given intraperitoneal injections of PAF (10 μg) dissolved in 100 μl of 5% ethanol-saline. […] Test drugs were orally administered in 50 μl of peanut oil one hour prior to PAF injection. Control mice were dosed with vehicle only. Mortality was assessed by counting survivors at one hour, two hours, and twenty four hours after the PAF injection.

[2] = tested on: arachidonic acid; assay: The Mouse Ear Edema Test (arachidonic acid-induced skin edema); format: in vivo, mouse (Charles River CD-1, female); conditions: 1 hour before arachidonic acid (0.5 mg)
Text: The direct application of arachidonic acid to skin, such as the mouse ear, produces an edematous response which is believed to be mediated by eicosanoids resulting from the actions of both cyclooxygenase and lipoxygenase systems. J. M. Young, D. A. Spires, C. J. Bedford, B. Wagner, S. J. Ballaron and L. M. DeYoung, J. Invest. Dermatol. 82:367-371 (1984); E. E. Opas, R. J. Bonney, and J. L. Hanes J. Invest. Dermatol. 84:253-256 (1985). PAF has been reported to cause the release of arachidonic acid, and as a result, gives rise to increased levels of eicosanoids in the exposed tissues. F. H. Chilton, J. T. Flaherty, C. E. Walsh, M. J. Thomas, R. L. Wykle, L. R. DeChatelet and B. M. Waite, J. Biol. Chem., 257:5402-5407 (1982). Thus, the mouse ear edema test can be used to discover substances which antagonize the effects of PAF.
The test drugs were dissolved in 10 μl ethanol and applied to the inner surface of the left ears of Charles River CD-1 female mice. Control values were obtained by applying 10 μl of ethanol to the right ear so that each mouse served as its own control. One hour later, arachidonic acid (0.5 mg/ear in 10 μl ethanol) was applied to both ears and allowed to act on the skin for one hour. The mice were then killed by cervical dislocation and the ears removed so that all tissue samples were of equivalent areas. The extent of edema in each sample was measured by weighing on an analytical balance.

[3] = tested on: platelet activating factor (PAF); conditions: reported by Calhoun et al., Agents & Actions, 21:306-309 (1987); cited from earlier work
[4] = tested on: platelet activating factor (PAF); assay: PAF Induced Paw Edema in the Mouse; format: in vivo, mouse (Charles River CD-1, female); conditions: 1 hour before PAF (1 ug/paw), 15 min after PAF
Procedure: The experimental procedure was adapted from Calhoun et al., Agents & Actions, 21:306-309 (1987). Charles River CD-1 female mice (20-25 G) were given a dose of Formula I, or phenidone, using peanut oil as a carrier. Control mice were given doses of the carrier alone. The drugs were administered orally in a 50 μl volume of peanut oil. One hour later, 1.0 μg of PAF dissolved in 50 μl of 5% ethanol-saline was injected subcutaneously into the plantar surface of the right hind paw. The volume of this injected foot to the level of the lateral malleous was measured by water displacement immediately before drug administration and again 15 minutes after PAF injection.
The effectiveness of each compound was analyzed in the following manner. The individual paw volumes were compared by a paired t test analysis in which predrug paw volumes were compared to paw volumes 15 minutes after PAF injection to determine the level of statistical significance. The percent inhibition of edema volume was obtained from the ratio of the mean predrug volume to the mean volume after PAF.

[5] = tested on: gastric mucosa; conditions: common adverse effect of consumption; cited from earlier work
[6] = tested on: gastric mucosa; conditions: 1 hour; for Mean Score: scale 0-3 (0 = normal mucosa)
Procedure: Robert and Szabo, In: Selye's Guide to Stress Research, (Vol. 2, A. Selye, Ed.) New York; Van Nostrand Reinhold Co., pp. 22-46 (1983); and Robert et al., Gastroenterology, 77:433-443 (1979). Experimental groups of 5-11 rats (Charles River CD) were fasted for 24 hours before the administration of either aspirin, Formula I or indomethacin by a rubber stomach tube (Rusch No. 8). The animals were killed 1 hour later by carbon dioxide asphyxiation. At that time, 4 ml of 10% aqueous buffered formaldehyde (formalin) was injected directly into the stomach of each animal. […] After 5 minutes of in situ fixation, the stomach and proximal duodenum were removed, opened along the greater curvature, pinned on a cork with mucosa upward, and immersed in 10% formaldehyde until further processing. Szabo, S. et al., J. Pharmacol. Meth., 13:59-66 (1985). The gastric lesions were then evaluated by direct visual inspection.
For comparative purposes, a semiquantitative scale of 0-3 was used to assess the extent of gastric mucosal lesions. Szabo et al., Science, 214:200-202 (1981); and Szabo et al., Gastroenterology, 85:1384-1390 (1983). According to this scale, a score of 0 indicates a normal mucosa; 1 represents the appearance of between 1 and 4 small petechiae; 2 indicates the presence of 5 or more petechiae or hemmorhagic streaks up to 4 mm in length; 3 represents the appearance of erosions longer than 5 mm or confluent hemmorrhages.

[7] = 40 mg/kg oral, 1 hr after PAF (10 μg i.p.)
[8] = 40 mg/kg oral, 2 hrs after PAF (10 μg i.p.)
[9] = 40 mg/kg oral, 24 hrs after PAF (10 μg i.p.)
[10] = 20 mg/kg oral, 1 hr after PAF (10 μg i.p.)
[11] = 20 mg/kg oral, 2 hrs after PAF (10 μg i.p.)
[12] = 20 mg/kg oral, 24 hrs after PAF (10 μg i.p.)

## O=C1CCN(c2ccccc2)N1 [Phenidone, phenidone, reference compound]
[1]; [7]
  Survivors (%): 20%
  Survivors/N: 1/5
[1]; [8]
  Survivors (%): 20%
  Survivors/N: 1/5
[1]; [9]
  Survivors (%): 20%
  Survivors/N: 1/5
[1]
  protective effect (in words): less protective than Formula I, particularly at longer time intervals
[2]; 0.063 mg/ear topical
  % Inhibition of Edema: 15.4%
[2]; 0.13 mg/ear topical
  % Inhibition of Edema: 26.6%
[2]; 0.25 mg/ear topical
  % Inhibition of Edema: 24.4%
[3]
  effectiveness against PAF edema (in words): effective against PAF edema
[4]; 40 mg/kg oral
  % Inhibition of Edema: 20.4%
[4]; 80 mg/kg oral
  % Inhibition of Edema: 35.7%
[5]
  gastrointestinal damage (in words): gastrointestinal damage, generally manifested as bleeding and/or frank ulceration

## COc1ccc2cc([C@H](C)C(=O)O)ccc2c1 [Naproxen, naproxen, reference compound]
[1]; [10]
  Survivors (%): 40%
  Survivors/N: 4/10
[1]; [11]
  Survivors (%): 40%
  Survivors/N: 4/10
[1]; [12]
  Survivors (%): 20%
  Survivors/N: 2/10
[1]; [7]
  Survivors (%): 100%
  Survivors/N: 5/5
[1]; [8]
  Survivors (%): 60%
  Survivors/N: 3/5
[1]; [9]
  Survivors (%): 60%
  Survivors/N: 3/5
[1]
  protective effect (in words): less protective than Formula I, particularly at longer time intervals
[5]
  gastrointestinal damage (in words): gastrointestinal damage, generally manifested as bleeding and/or frank ulceration

## COc1ccc2c(c1)c(CC(=O)O)c(C)n2C(=O)c1ccc(Cl)cc1 [Indomethacin, indomethacin]
[2]; 0.05 mg/ear topical
  % Inhibition of Edema: 24.1%
[2]; 0.10 mg/ear topical
  % Inhibition of Edema: 21.8%
[6]; 10 mg/kg by stomach tube
  Incidence (rats with lesions/total tested): 2/5
  Mean Score: 0.6
[6]; 20 mg/kg by stomach tube
  Incidence (rats with lesions/total tested): 6/11
  Mean Score: 0.77

## CC(=O)Oc1ccccc1C(=O)O [Aspirin, aspirin]
[6]; 100 mg/kg by stomach tube
  Mean Score: 1.9
